From ChEMBL document CHEMBL4622864, “Synthesis and biological evaluation of quinoxaline derivatives as specific c-Met kinase inhibitors” (Bioorg Med Chem Lett, 2020)
Blank lines part the entries; values can stand above or below the compound they belong to.

Key:
[1] = tested on: MKN-45; assay: Antiproliferative activity against human MKN45 cells overexpressing c-MET assessed as reduction in cell proliferation; type: functional, cell-based
[2] = tested on: MKN-45; assay: Antitumor activity against human MKN45 cells xenografted in nude mouse assessed as tumor growth inhibition at 20 mg/kg, po administered once daily for 14 days relative to control; type: functional; conditions: MKN-45, po, 336 h, read-out: TGI
[3] = target: T1, Hepatocyte growth factor receptor (Homo sapiens, UniProt P08581); assay: Inhibition of c-Met (unknown origin) by ADP-Glo kinase assay
T1 sequence (P08581 whole entry): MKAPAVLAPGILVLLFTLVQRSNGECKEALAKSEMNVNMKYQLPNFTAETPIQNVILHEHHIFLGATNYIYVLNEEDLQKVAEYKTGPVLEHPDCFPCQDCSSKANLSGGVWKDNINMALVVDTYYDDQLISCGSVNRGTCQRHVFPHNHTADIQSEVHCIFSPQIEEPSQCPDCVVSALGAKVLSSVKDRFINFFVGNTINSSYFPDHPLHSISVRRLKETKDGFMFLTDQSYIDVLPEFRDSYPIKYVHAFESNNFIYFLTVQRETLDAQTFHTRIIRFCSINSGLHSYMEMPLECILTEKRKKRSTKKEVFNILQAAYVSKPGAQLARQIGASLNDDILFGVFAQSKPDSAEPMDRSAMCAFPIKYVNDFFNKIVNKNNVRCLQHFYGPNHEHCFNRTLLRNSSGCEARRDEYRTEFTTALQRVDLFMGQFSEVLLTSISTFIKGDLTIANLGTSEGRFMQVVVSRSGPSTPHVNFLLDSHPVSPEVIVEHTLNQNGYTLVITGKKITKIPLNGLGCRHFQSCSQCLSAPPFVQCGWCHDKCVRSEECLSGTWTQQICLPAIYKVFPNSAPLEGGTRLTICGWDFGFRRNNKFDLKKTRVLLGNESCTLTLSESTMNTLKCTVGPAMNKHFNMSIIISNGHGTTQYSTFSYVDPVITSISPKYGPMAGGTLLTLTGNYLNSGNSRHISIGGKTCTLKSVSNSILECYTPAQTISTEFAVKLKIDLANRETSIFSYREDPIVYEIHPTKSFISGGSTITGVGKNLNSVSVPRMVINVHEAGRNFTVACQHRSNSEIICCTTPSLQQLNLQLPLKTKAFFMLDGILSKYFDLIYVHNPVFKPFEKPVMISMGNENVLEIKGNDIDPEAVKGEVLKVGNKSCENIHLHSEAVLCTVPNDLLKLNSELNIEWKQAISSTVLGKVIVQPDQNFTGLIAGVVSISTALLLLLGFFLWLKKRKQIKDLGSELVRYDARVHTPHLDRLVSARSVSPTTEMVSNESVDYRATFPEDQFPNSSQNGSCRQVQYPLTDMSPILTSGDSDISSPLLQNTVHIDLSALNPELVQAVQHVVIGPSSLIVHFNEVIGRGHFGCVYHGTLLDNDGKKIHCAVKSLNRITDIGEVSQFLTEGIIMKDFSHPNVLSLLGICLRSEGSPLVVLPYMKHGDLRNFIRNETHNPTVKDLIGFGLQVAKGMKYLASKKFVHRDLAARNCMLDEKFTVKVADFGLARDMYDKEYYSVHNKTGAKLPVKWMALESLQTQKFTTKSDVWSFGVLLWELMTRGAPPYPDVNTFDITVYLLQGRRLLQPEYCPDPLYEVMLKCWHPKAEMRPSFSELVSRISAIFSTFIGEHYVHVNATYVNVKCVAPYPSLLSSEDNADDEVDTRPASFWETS

[4] = target: Vascular endothelial growth factor receptor 1 (Homo sapiens) (UniProt P17948); assay: Inhibition of VEGFR1 (unknown origin) at 100 nM relative to control
[5] = target: Macrophage colony-stimulating factor 1 receptor (Homo sapiens) (UniProt P07333); assay: Inhibition of CSF1R (unknown origin) at 10 nM relative to control
Macrophage colony-stimulating factor 1 receptor (Homo sapiens), sequence (P07333 whole entry): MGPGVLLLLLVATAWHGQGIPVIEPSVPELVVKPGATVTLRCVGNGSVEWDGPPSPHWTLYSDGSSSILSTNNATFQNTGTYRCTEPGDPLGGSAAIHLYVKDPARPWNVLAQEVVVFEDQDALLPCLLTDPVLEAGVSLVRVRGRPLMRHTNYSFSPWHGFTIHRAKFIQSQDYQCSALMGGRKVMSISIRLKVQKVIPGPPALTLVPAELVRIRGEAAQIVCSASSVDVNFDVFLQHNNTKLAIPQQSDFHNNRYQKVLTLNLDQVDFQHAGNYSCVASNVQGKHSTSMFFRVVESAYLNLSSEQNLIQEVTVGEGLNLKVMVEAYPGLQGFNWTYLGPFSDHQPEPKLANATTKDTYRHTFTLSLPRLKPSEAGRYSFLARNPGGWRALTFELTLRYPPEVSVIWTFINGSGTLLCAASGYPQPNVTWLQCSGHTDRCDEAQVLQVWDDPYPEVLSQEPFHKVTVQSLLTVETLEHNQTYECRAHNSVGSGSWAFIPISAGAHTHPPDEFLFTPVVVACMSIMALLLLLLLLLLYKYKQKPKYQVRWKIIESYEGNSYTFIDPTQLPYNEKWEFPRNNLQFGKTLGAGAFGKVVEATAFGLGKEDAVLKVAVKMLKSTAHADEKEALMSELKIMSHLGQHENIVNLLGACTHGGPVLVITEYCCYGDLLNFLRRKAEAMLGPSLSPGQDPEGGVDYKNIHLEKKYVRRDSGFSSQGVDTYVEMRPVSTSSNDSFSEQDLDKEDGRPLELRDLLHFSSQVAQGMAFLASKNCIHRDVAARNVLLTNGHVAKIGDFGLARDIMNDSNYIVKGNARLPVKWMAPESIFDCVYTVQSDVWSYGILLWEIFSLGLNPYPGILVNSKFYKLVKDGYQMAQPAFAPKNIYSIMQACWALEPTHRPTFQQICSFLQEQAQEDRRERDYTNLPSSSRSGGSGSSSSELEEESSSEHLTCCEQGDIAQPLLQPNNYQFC

[6] = target: Mast/stem cell growth factor receptor Kit (Homo sapiens) (UniProt P10721); assay: Inhibition of C-kit (unknown origin) at 100 nM relative to control
Mast/stem cell growth factor receptor Kit (Homo sapiens), sequence (P10721 whole entry): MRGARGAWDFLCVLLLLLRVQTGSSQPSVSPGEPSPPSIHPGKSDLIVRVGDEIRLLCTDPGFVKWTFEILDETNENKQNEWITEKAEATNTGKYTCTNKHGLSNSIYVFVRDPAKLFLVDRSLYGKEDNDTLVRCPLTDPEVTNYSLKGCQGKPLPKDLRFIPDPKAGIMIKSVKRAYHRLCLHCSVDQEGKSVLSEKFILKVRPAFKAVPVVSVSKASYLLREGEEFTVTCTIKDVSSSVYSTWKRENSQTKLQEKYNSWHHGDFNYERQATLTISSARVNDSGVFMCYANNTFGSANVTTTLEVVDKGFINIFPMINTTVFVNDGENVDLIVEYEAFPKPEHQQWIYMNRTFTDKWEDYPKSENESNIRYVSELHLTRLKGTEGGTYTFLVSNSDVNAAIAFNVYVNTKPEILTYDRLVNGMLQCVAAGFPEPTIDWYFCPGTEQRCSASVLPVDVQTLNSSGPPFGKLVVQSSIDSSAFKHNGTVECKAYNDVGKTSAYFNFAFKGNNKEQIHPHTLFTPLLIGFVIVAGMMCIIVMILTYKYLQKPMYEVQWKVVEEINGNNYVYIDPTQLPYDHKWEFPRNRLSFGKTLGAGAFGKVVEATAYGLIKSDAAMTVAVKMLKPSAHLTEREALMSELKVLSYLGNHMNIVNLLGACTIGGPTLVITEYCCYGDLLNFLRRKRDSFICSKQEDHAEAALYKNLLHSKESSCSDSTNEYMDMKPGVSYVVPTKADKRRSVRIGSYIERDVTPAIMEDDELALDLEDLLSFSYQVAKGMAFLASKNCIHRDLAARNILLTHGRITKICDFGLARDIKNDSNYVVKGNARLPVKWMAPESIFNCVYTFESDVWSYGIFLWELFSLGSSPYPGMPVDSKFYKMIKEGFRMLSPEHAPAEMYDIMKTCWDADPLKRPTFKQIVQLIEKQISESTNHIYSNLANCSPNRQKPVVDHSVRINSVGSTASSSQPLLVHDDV

[7] = target: Platelet-derived growth factor receptor alpha (Homo sapiens) (UniProt P16234); assay: Inhibition of PDGFRalpha (unknown origin) at 100 nM relative to control
Platelet-derived growth factor receptor alpha (Homo sapiens), sequence (P16234 whole entry): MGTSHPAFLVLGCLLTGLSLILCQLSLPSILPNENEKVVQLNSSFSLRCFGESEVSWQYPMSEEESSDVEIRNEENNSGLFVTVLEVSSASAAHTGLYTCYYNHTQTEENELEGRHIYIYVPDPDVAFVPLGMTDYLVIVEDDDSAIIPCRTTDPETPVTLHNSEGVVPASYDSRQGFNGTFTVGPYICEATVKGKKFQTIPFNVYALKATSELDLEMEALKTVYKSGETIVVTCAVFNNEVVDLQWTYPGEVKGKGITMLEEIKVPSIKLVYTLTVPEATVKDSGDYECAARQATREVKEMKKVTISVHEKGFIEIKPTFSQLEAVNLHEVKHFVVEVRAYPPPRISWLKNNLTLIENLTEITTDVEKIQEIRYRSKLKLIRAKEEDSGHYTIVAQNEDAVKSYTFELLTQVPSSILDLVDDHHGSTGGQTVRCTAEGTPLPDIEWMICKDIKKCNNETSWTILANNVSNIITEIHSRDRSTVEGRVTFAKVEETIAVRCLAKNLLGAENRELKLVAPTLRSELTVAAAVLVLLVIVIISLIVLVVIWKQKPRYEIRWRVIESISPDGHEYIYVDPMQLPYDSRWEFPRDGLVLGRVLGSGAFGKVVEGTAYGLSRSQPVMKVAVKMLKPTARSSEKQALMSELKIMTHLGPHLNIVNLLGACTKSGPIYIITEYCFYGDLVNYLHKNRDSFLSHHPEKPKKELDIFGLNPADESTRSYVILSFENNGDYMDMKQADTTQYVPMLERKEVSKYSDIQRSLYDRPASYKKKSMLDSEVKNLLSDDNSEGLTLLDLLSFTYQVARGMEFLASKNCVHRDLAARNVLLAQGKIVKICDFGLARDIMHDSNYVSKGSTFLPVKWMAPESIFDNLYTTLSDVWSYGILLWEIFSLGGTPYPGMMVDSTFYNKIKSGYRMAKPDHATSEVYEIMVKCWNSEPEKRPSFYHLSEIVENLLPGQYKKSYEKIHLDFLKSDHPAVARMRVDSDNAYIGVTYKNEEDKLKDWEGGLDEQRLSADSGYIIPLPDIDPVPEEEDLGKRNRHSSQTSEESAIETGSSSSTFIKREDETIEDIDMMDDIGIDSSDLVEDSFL

[8] = target: Angiopoietin-1 receptor (Homo sapiens) (UniProt Q02763); assay: Inhibition of human TIE2 at 100 nM relative to control
[9] = tested on: Tyrosine-protein kinase ABL1 (Homo sapiens), P00519 [T315I]; assay: Inhibition of ABL T315I mutant (unknown origin) 10 nM relative to control
[10] = target: CYP2C19 (Homo sapiens, UniProt P33261); assay: Inhibition of CYP2C19 (unknown origin) at 10 uM relative to control; type: ADME
[11] = target: Fibroblast growth factor receptor 1 (Homo sapiens) (UniProt P11362); assay: Inhibition of FGFR1 (unknown origin) at 10 nM relative to control
[12] = target: Receptor-type tyrosine-protein kinase FLT3 (Homo sapiens) (UniProt P36888); assay: Inhibition of FLT3 (unknown origin) at 100 nM relative to control
[13] = target: Tyrosine-protein kinase Lck (Homo sapiens) (UniProt P06239); assay: Inhibition of LCK (unknown origin) at 100 nM relative to control
[14] = target: Macrophage colony-stimulating factor 1 receptor (Homo sapiens) (UniProt P07333); assay: Inhibition of CSF1R (unknown origin) at 100 nM relative to control
[15] = tested on: MKN-45; assay: Antitumor activity against human MKN45 cells xenografted in po dosed nude mouse assessed as tumor growth inhibition administered once daily for 14 days; type: functional, organism-based
[16] = Metabolic stability in mouse microsomes assessed as parent compound remaining measured after 30 mins; type: ADME, Microsome; conditions: read-out: Stability
[17] = target: CYP2C9 (Homo sapiens, UniProt P11712); assay: Inhibition of CYP2C9 (unknown origin) at 10 uM relative to control; type: ADME
[18] = Metabolic stability in rat microsomes assessed as parent compound remaining measured after 30 mins; type: ADME, Microsome; conditions: read-out: Stability
[19] = target: Platelet-derived growth factor receptor beta (Homo sapiens) (UniProt P09619); assay: Inhibition of human PDGFRbeta at 100 nM relative to control
[20] = target: Proto-oncogene tyrosine-protein kinase receptor Ret (Homo sapiens) (UniProt P07949); assay: Inhibition of RET (unknown origin) at 100 nM relative to control
[21] = target: Vascular endothelial growth factor receptor 3 (Homo sapiens) (UniProt P35916); assay: Inhibition of VEGFR3 (unknown origin) at 100 nM relative to control
[22] = tested on: Tyrosine-protein kinase ABL1 (Homo sapiens), P00519 [T315I]; assay: Inhibition of ABL T315I mutant (unknown origin) 100 nM relative to control
[23] = target: CYP3A4 (Homo sapiens, UniProt P08684); assay: Inhibition of CYP3A4 (unknown origin) at 10 uM relative to control; type: ADME
[24] = target: Platelet-derived growth factor receptor alpha (Homo sapiens) (UniProt P16234); assay: Inhibition of PDGFRalpha (unknown origin) at 10 nM relative to control
[25] = target: CYP2D6 (Homo sapiens, UniProt P10635); assay: Inhibition of CYP2D6 (unknown origin) at 10 uM relative to control; type: ADME
[26] = target: Macrophage-stimulating protein receptor (Homo sapiens) (UniProt Q04912); assay: Inhibition of RON (unknown origin) at 10 nM relative to control
[27] = target: Proto-oncogene tyrosine-protein kinase Src (Homo sapiens) (UniProt P12931); assay: Inhibition of c-SRC (unknown origin) at 100 nM relative to control
Proto-oncogene tyrosine-protein kinase Src (Homo sapiens), sequence (P12931 2-536 limits assumed): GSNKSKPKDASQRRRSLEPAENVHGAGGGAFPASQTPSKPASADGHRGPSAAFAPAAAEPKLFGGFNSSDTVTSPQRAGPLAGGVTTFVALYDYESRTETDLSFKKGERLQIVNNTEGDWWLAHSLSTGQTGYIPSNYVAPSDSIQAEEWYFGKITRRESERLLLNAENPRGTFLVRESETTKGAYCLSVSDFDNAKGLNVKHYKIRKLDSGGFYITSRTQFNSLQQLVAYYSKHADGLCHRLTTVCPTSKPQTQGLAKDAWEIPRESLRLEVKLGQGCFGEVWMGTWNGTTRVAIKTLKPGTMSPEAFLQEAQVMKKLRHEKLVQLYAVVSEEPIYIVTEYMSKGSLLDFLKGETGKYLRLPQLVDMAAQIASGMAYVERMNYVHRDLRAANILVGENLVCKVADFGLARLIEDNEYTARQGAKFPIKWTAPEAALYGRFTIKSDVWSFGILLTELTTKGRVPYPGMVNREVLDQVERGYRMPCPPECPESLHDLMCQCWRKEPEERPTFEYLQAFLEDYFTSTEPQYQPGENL

[28] = target: T1, Hepatocyte growth factor receptor; assay: Inhibition of human c-MET at 100 nM relative to control
[29] = target: Insulin-like growth factor 1 receptor (Homo sapiens) (UniProt P08069); assay: Inhibition of IGF1R (unknown origin) at 10 nM relative to control
[30] = Metabolic stability in human microsomes assessed as parent compound remaining measured after 30 mins; type: ADME, Microsome; conditions: read-out: Stability
[31] = target: Proto-oncogene tyrosine-protein kinase Src (Homo sapiens) (UniProt P12931); assay: Inhibition of c-SRC (unknown origin) at 10 nM relative to control
[32] = target: Vascular endothelial growth factor receptor 2 (Homo sapiens) (UniProt P35968); assay: Inhibition of human VEGFR2 at 10 nM relative to control
[33] = target: Tyrosine-protein kinase receptor UFO (Homo sapiens) (UniProt P30530); assay: Inhibition of AXL (unknown origin) at 100 nM relative to control
[34] = target: T1, Hepatocyte growth factor receptor; assay: Inhibition of human c-MET at 10 nM relative to control
[35] = target: Macrophage-stimulating protein receptor (Homo sapiens) (UniProt Q04912); assay: Inhibition of RON (unknown origin) at 100 nM relative to control
[36] = target: Fibroblast growth factor receptor 1 (Homo sapiens) (UniProt P11362); assay: Inhibition of FGFR1 (unknown origin) at 100 nM relative to control
[37] = target: Angiopoietin-1 receptor (Homo sapiens) (UniProt Q02763); assay: Inhibition of human TIE2 at 10 nM relative to control
[38] = target: CYP1A2 (Homo sapiens, UniProt P05177); assay: Inhibition of CYP1A2 (unknown origin) at 10 uM relative to control; type: ADME
[39] = target: Tyrosine-protein kinase receptor UFO (Homo sapiens) (UniProt P30530); assay: Inhibition of AXL (unknown origin) at 10 nM relative to control
[40] = target: Vascular endothelial growth factor receptor 3 (Homo sapiens) (UniProt P35916); assay: Inhibition of VEGFR3 (unknown origin) at 10 nM relative to control
[41] = target: Mast/stem cell growth factor receptor Kit (Homo sapiens) (UniProt P10721); assay: Inhibition of C-kit (unknown origin) at 10 nM relative to control
[42] = target: Fibroblast growth factor receptor 2 (Homo sapiens) (UniProt P21802); assay: Inhibition of FGFR2 (unknown origin) at 100 nM relative to control
[43] = target: ALK tyrosine kinase receptor (Homo sapiens) (UniProt Q9UM73); assay: Inhibition of ALK (unknown origin) at 10 nM relative to control

IC50 [1]: 243 nM
Compound: C[C@@H](Oc1cncc(-c2cnn(C3CCN(S(C)(=O)=O)CC3)c2)c1)c1c(Cl)ccc(F)c1Cl

IC50 [1]: 227 nM
Compound: C[C@@H](Oc1cncc(-c2cnn(C3CCN(C)CC3)c2)c1)c1c(Cl)ccc(F)c1Cl

IC50 [1]: 735 nM
Compound: C[C@@H](Oc1ccc2ncc(-c3cnn(C)c3)nc2c1)c1c(Cl)ccc(F)c1Cl

IC50 [1]: 196 nM
Compound: C[C@@H](Oc1ccc2ncc(-c3cnn(CCO)c3)nc2c1)c1c(Cl)ccc(F)c1Cl

IC50 [1]: 252 nM
Compound: CC(=O)OCCn1cc(-c2cnc3ccc(O[C@H](C)c4c(Cl)ccc(F)c4Cl)cc3n2)cn1

IC50 [1]: 114 nM
Compound: C[C@@H](Oc1cc(-c2cnn(C3CCNCC3)c2)cnc1F)c1c(Cl)ccc(F)c1Cl

IC50 [1]: 9.1 to 38 nM
Compound: C[C@@H](Oc1cc(-c2cnn(C3CCNCC3)c2)cnc1N)c1c(Cl)ccc(F)c1Cl [CRIZOTINIB]
inhibition in vivo at 20 mg/kg [2]: 29%

IC50 [1]: 797 nM
IC50 [3]: 92 nM
Compound: C[C@H](Oc1cncc(-c2cnn(C3CCNCC3)c2)c1)c1c(Cl)ccc(F)c1Cl

IC50 [1]: 175 nM
inhibition [4]: -1%
inhibition [5]: 15%
inhibition [6]: 4%
inhibition [7]: -4%
inhibition [8]: 33%
inhibition [9]: 43%
inhibition at 10 µM [10]: 63%
inhibition [11]: -7%
inhibition [12]: 8%
inhibition [13]: 47%
inhibition [14]: 67%
remaining at 0.5 h [16]: 96%
inhibition at 10 µM [17]: 79%
remaining at 0.5 h [18]: 85%
inhibition [19]: -10%
inhibition [20]: -3%
inhibition [21]: 0%
inhibition [22]: 63%
inhibition at 10 µM [23]: 76%
inhibition [24]: 3%
inhibition at 10 µM [25]: 28%
IC50 [3]: 6 nM
inhibition [26]: -9%
inhibition [27]: -7%
inhibition [28]: 100%
inhibition [29]: -4%
remaining at 0.5 h [30]: 94%
inhibition [31]: -10%
inhibition [32]: -4%
inhibition [33]: 75%
inhibition [34]: 80%
inhibition [35]: 49%
inhibition [36]: -5%
inhibition [37]: 2%
inhibition at 10 µM [38]: 55%
inhibition [39]: 17%
inhibition [40]: -5%
inhibition [41]: 0%
inhibition [42]: 0%
inhibition [43]: 31%
Compound: C[C@@H](Oc1cncc(-c2cnn(C3CCNCC3)c2)c1)c1c(Cl)ccc(F)c1Cl
inhibition in vivo at 20 mg/kg [2]: 48%
TGI [15]: Dose-dependent effect

IC50 [1]: 132 nM
Compound: CC(C)N1CCC(n2cc(-c3cncc(O[C@H](C)c4c(Cl)ccc(F)c4Cl)c3)cn2)CC1

IC50 [1]: 113 nM
Compound: C[C@@H](Oc1cncc(-c2cnn(C3CCN(CC(N)=O)CC3)c2)c1)c1c(Cl)ccc(F)c1Cl

IC50 [1]: 117 nM
Compound: CC(=O)N1CCC(n2cc(-c3cncc(O[C@H](C)c4c(Cl)ccc(F)c4Cl)c3)cn2)CC1

IC50 [1]: 306 nM
Compound: C[C@@H](Oc1cncc(-c2cnn(C3CCN(CC4CC4)CC3)c2)c1)c1c(Cl)ccc(F)c1Cl

IC50 [1]: 77 nM
Compound: CC(=O)N1CCC(n2cc(-c3cnc(F)c(O[C@H](C)c4c(Cl)ccc(F)c4Cl)c3)cn2)CC1
